Measured values as given in ChEMBL document CHEMBL3885861, “Open TG-GATES”.

Organism: Rattus norvegicus
Test: Open TG-GATES - Regimen: Daily Repeat
Format: toxicity, organism-based, Sprague-Dawley
Set-up: regimen Daily Repeat, gender Male, age 6 weeks
Conditions: in vivo, po, route gavage; for APTT / Bas / Eos / Fbg / Hb / Ht / Lym / MCH / MCHC / MCV / Mono / Neu / PT / Plat / RBC / Ret / WBC: tissue Blood; for KIDNEY_L / KIDNEY_R / KIDNEY_TOTAL: tissue Kidney; for LIVER: tissue Liver; for A/G / ALP / ALT / AST / BUN / CRE / Ca / Cl / DBIL / GLC / IP / K / LDH / Na / PL / RALB / TBIL / TC / TG / TP / gamma-GTP: tissue Plasma
[1] = 300 mg/kg, 72 h, dose level Middle, time 3 day
[2] = 300 mg/kg, […], dose level Middle, time 7 day
[3] = 300 mg/kg, […], dose level Middle, time 14 day
[4] = 300 mg/kg, […], dose level Middle, time 28 day
[5] = 1000 mg/kg, 72 h, dose level High, time 3 day
[6] = 1000 mg/kg, […], dose level High, time 7 day
[7] = 1000 mg/kg, […], dose level High, time 14 day
[8] = 1000 mg/kg, […], dose level High, time 28 day

CC[C@@H](CO)NCCN[C@@H](CC)CO [ETHAMBUTOL]
TERMINAL_BW [1]: 239.4 g
APTT [1]: 21.6 s
Bas [1]: 0%
Eos [1]: 1%
Fbg [1]: 330.2 mg/dL
Hb [1]: 13.7 g/dL
Ht [1]: 40%
Lym [1]: 75%
MCH [1]: 21.8 pg
MCHC [1]: 34.3%
MCV [1]: 63.4 fL
Mono [1]: 3%
Neu [1]: 19.4%
PT [1]: 15.9 s
Plat [1]: 113.3 x10_4/uL
RBC [1]: 630 x10_4/ul
Ret [1]: 6.3%
WBC [1]: 92.4 x10_2/uL
KIDNEY_L [1]: 1 g
KIDNEY_R [1]: 1.1 g
KIDNEY_TOTAL [1]: 2.1 g
LIVER [1]: 12.5 g
A/G [1]: 1.3
ALP [1]: 1720.4 IU/L
ALT [1]: 43 IU/L
AST [1]: 71 IU/L
BUN [1]: 17.6 mg/dL
CRE [1]: 0.2 mg/dL
Ca [1]: 10.7 mg/dL
Cl [1]: 108 meq/L
DBIL [1]: 0 mg/dL
GLC [1]: 209.6 mg/dL
IP [1]: 7.6 mg/dL
K [1]: 3.9 meq/L
LDH [1]: 164.2 IU/L
Na [1]: 140.8 meq/L
PL [1]: 163.4 mg/dL
RALB [1]: 3.2 g/dL
TBIL [1]: 0.01 mg/dL
TC [1]: 90.2 mg/dL
TG [1]: 87.6 mg/dL
TP [1]: 5.7 g/dL
gamma-GTP [1]: 1.4 IU/L
TERMINAL_BW [2]: 262.8 g
TERMINAL_BW [3]: 299.9 g
TERMINAL_BW [4]: 296 g
APTT [2]: 20.8 s
Bas [2]: 0%
Eos [2]: 0.8%
Fbg [2]: 303.8 mg/dL
Hb [2]: 14.2 g/dL
Ht [2]: 41.4%
Lym [2]: 82.2%
MCH [2]: 20.7 pg
MCHC [2]: 34.3%
MCV [2]: 60.2 fL
Mono [2]: 2.4%
Neu [2]: 13%
PT [2]: 16.4 s
Plat [2]: 113.9 x10_4/uL
RBC [2]: 688.8 x10_4/ul
Ret [2]: 4.2%
WBC [2]: 98.6 x10_2/uL
APTT [3]: 20.4 s
Bas [3]: 0%
Eos [3]: 1%
Fbg [3]: 274.2 mg/dL
Hb [3]: 14.2 g/dL
Ht [3]: 42.3%
Lym [3]: 82.2%
MCH [3]: 19.2 pg
MCHC [3]: 33.7%
MCV [3]: 57 fL
Mono [3]: 2.4%
Neu [3]: 13.2%
PT [3]: 16.8 s
Plat [3]: 86.9 x10_4/uL
RBC [3]: 742.8 x10_4/ul
Ret [3]: 2.3%
WBC [3]: 118.5 x10_2/uL
APTT [4]: 21.4 s
Bas [4]: 0%
Eos [4]: 1.2%
Fbg [4]: 257.5 mg/dL
Hb [4]: 14.6 g/dL
Ht [4]: 42.3%
Lym [4]: 77.2%
MCH [4]: 17.9 pg
MCHC [4]: 34.5%
MCV [4]: 51.8 fL
Mono [4]: 2.8%
Neu [4]: 17.2%
PT [4]: 17.8 s
Plat [4]: 82.7 x10_4/uL
RBC [4]: 817.8 x10_4/ul
Ret [4]: 2%
WBC [4]: 127.3 x10_2/uL
KIDNEY_L [2]: 1.1 g
KIDNEY_R [2]: 1.1 g
KIDNEY_TOTAL [2]: 2.2 g
KIDNEY_L [3]: 1.3 g
KIDNEY_R [3]: 1.3 g
KIDNEY_TOTAL [3]: 2.6 g
KIDNEY_L [4]: 1.2 g
KIDNEY_R [4]: 1.3 g
KIDNEY_TOTAL [4]: 2.5 g
LIVER [2]: 12.5 g
LIVER [3]: 15.8 g
LIVER [4]: 14.5 g
A/G [2]: 1.1
ALP [2]: 1774.8 IU/L
ALT [2]: 60.2 IU/L
AST [2]: 92.2 IU/L
BUN [2]: 20.4 mg/dL
CRE [2]: 0.2 mg/dL
Ca [2]: 10.2 mg/dL
Cl [2]: 107.4 meq/L
DBIL [2]: 0.002 mg/dL
GLC [2]: 172.2 mg/dL
IP [2]: 7.9 mg/dL
K [2]: 4 meq/L
LDH [2]: 196 IU/L
Na [2]: 142.2 meq/L
PL [2]: 141.4 mg/dL
RALB [2]: 2.8 g/dL
TBIL [2]: 0.026 mg/dL
TC [2]: 73 mg/dL
TG [2]: 43.2 mg/dL
TP [2]: 5.3 g/dL
gamma-GTP [2]: 1.8 IU/L
A/G [3]: 1.1
ALP [3]: 2103.2 IU/L
ALT [3]: 68 IU/L
AST [3]: 115.2 IU/L
BUN [3]: 24.4 mg/dL
CRE [3]: 0.2 mg/dL
Ca [3]: 9.8 mg/dL
Cl [3]: 106.4 meq/L
DBIL [3]: 0.02 mg/dL
GLC [3]: 197 mg/dL
IP [3]: 7.2 mg/dL
K [3]: 4.6 meq/L
LDH [3]: 520.6 IU/L
Na [3]: 139.8 meq/L
PL [3]: 139.8 mg/dL
RALB [3]: 2.6 g/dL
TBIL [3]: 0.042 mg/dL
TC [3]: 79.4 mg/dL
TG [3]: 26.4 mg/dL
TP [3]: 4.9 g/dL
gamma-GTP [3]: 1.8 IU/L
A/G [4]: 1
ALP [4]: 1083.5 IU/L
ALT [4]: 66.5 IU/L
AST [4]: 136 IU/L
BUN [4]: 19.2 mg/dL
CRE [4]: 0.2 mg/dL
Ca [4]: 9.4 mg/dL
Cl [4]: 109.8 meq/L
DBIL [4]: 0.0275 mg/dL
GLC [4]: 209 mg/dL
IP [4]: 6.8 mg/dL
K [4]: 4.2 meq/L
LDH [4]: 602.8 IU/L
Na [4]: 140.5 meq/L
PL [4]: 117.5 mg/dL
RALB [4]: 2.6 g/dL
TBIL [4]: 0.055 mg/dL
TC [4]: 70.5 mg/dL
TG [4]: 24.5 mg/dL
TP [4]: 5.3 g/dL
gamma-GTP [4]: 1.5 IU/L
TERMINAL_BW [5]: 233.6 g
APTT [5]: 19.9 s
Bas [5]: 0%
Eos [5]: 0.8%
Fbg [5]: 303.8 mg/dL
Hb [5]: 13.5 g/dL
Ht [5]: 38.6%
Lym [5]: 77.8%
MCH [5]: 21.4 pg
MCHC [5]: 35%
MCV [5]: 61 fL
Mono [5]: 3.2%
Neu [5]: 16.6%
PT [5]: 16.3 s
Plat [5]: 122.5 x10_4/uL
RBC [5]: 633.2 x10_4/ul
Ret [5]: 4.8%
WBC [5]: 84.1 x10_2/uL
KIDNEY_L [5]: 1 g
KIDNEY_R [5]: 1.1 g
KIDNEY_TOTAL [5]: 2.1 g
LIVER [5]: 12.7 g
A/G [5]: 1.2
ALP [5]: 1656 IU/L
ALT [5]: 49 IU/L
AST [5]: 88.2 IU/L
BUN [5]: 21 mg/dL
CRE [5]: 0.2 mg/dL
Ca [5]: 10.6 mg/dL
Cl [5]: 108 meq/L
DBIL [5]: 0.002 mg/dL
GLC [5]: 177.8 mg/dL
IP [5]: 8.1 mg/dL
K [5]: 4 meq/L
LDH [5]: 160.8 IU/L
Na [5]: 140 meq/L
PL [5]: 163.8 mg/dL
RALB [5]: 3 g/dL
TBIL [5]: 0.026 mg/dL
TC [5]: 99.6 mg/dL
TG [5]: 41.2 mg/dL
TP [5]: 5.5 g/dL
gamma-GTP [5]: 1.6 IU/L
TERMINAL_BW [6]: 220.6 g
TERMINAL_BW [7]: 208.8 g
TERMINAL_BW [8]: 151.9 g
APTT [6]: 19.7 s
Bas [6]: 0%
Eos [6]: 0.8%
Fbg [6]: 167.4 mg/dL
Hb [6]: 16.1 g/dL
Ht [6]: 46.3%
Lym [6]: 73.8%
MCH [6]: 20.8 pg
MCHC [6]: 34.7%
MCV [6]: 59.8 fL
Mono [6]: 3.4%
Neu [6]: 19.4%
PT [6]: 19.6 s
Plat [6]: 116.6 x10_4/uL
RBC [6]: 774.8 x10_4/ul
Ret [6]: 2%
WBC [6]: 71 x10_2/uL
APTT [7]: 21.5 s
Bas [7]: 0%
Eos [7]: 1.2%
Fbg [7]: 228 mg/dL
Hb [7]: 15.5 g/dL
Ht [7]: 44.6%
Lym [7]: 83.2%
MCH [7]: 19.4 pg
MCHC [7]: 34.8%
MCV [7]: 55.6 fL
Mono [7]: 2.2%
Neu [7]: 12.4%
PT [7]: 18.1 s
Plat [7]: 126 x10_4/uL
RBC [7]: 800.4 x10_4/ul
Ret [7]: 0.5%
WBC [7]: 95.8 x10_2/uL
APTT [8]: 27.6 s
Bas [8]: 0%
Eos [8]: 0.3%
Fbg [8]: 252 mg/dL
Hb [8]: 17.2 g/dL
Ht [8]: 49.9%
Lym [8]: 41.3%
MCH [8]: 18 pg
MCHC [8]: 34.6%
MCV [8]: 52 fL
Mono [8]: 8.3%
Neu [8]: 46.7%
PT [8]: 19.9 s
Plat [8]: 105.7 x10_4/uL
RBC [8]: 960 x10_4/ul
Ret [8]: 0.7%
WBC [8]: 102.9 x10_2/uL
KIDNEY_L [6]: 1 g
KIDNEY_R [6]: 1.1 g
KIDNEY_TOTAL [6]: 2.1 g
KIDNEY_L [7]: 1 g
KIDNEY_R [7]: 1 g
KIDNEY_TOTAL [7]: 2 g
KIDNEY_L [8]: 0.9 g
KIDNEY_R [8]: 0.9 g
KIDNEY_TOTAL [8]: 1.8 g
LIVER [6]: 10.6 g
LIVER [7]: 9.2 g
LIVER [8]: 6.7 g
A/G [6]: 1.2
ALP [6]: 1664.8 IU/L
ALT [6]: 76.6 IU/L
AST [6]: 165.4 IU/L
BUN [6]: 22.2 mg/dL
CRE [6]: 0.2 mg/dL
Ca [6]: 9.3 mg/dL
Cl [6]: 107.4 meq/L
DBIL [6]: 0.3 mg/dL
GLC [6]: 145.2 mg/dL
IP [6]: 8.3 mg/dL
K [6]: 4.6 meq/L
LDH [6]: 334 IU/L
Na [6]: 138.8 meq/L
PL [6]: 108 mg/dL
RALB [6]: 2.4 g/dL
TBIL [6]: 0.3 mg/dL
TC [6]: 59.6 mg/dL
TG [6]: 15.6 mg/dL
TP [6]: 4.3 g/dL
gamma-GTP [6]: 1.4 IU/L
A/G [7]: 1.1
ALP [7]: 1208.4 IU/L
ALT [7]: 53 IU/L
AST [7]: 108.6 IU/L
BUN [7]: 21.8 mg/dL
CRE [7]: 0.2 mg/dL
Ca [7]: 9.4 mg/dL
Cl [7]: 108.6 meq/L
DBIL [7]: 0.068 mg/dL
GLC [7]: 155.2 mg/dL
IP [7]: 6.8 mg/dL
K [7]: 4.1 meq/L
LDH [7]: 178.8 IU/L
Na [7]: 139.4 meq/L
PL [7]: 112.6 mg/dL
RALB [7]: 2.4 g/dL
TBIL [7]: 0.08 mg/dL
TC [7]: 61.6 mg/dL
TG [7]: 19 mg/dL
TP [7]: 4.6 g/dL
gamma-GTP [7]: 3.6 IU/L
A/G [8]: 1.1
ALP [8]: 564 IU/L
ALT [8]: 45.3 IU/L
AST [8]: 342 IU/L
BUN [8]: 34 mg/dL
CRE [8]: 0.2 mg/dL
Ca [8]: 9.8 mg/dL
Cl [8]: 116.7 meq/L
DBIL [8]: 0.1 mg/dL
GLC [8]: 321.7 mg/dL
IP [8]: 10.9 mg/dL
K [8]: 4.3 meq/L
LDH [8]: 600.7 IU/L
Na [8]: 148 meq/L
PL [8]: 102 mg/dL
RALB [8]: 2.9 g/dL
TBIL [8]: 0.2 mg/dL
TC [8]: 60 mg/dL
TG [8]: 22.3 mg/dL
TP [8]: 5.5 g/dL
gamma-GTP [8]: 5.7 IU/L
